Here are results for 6 molecules from article PMC9645260, “Small-molecule inhibitors of P-Rex guanine-nucleotide exchange factors” (Small GTPases, 2022).

One test has as its target T1, P-Rex1 DHPH domains (Homo sapiens, UniProt Q8TCU6).
T1 construct: 100 nM EE-P-Rex1 DHPH domains (PREX-in1, compounds 2–10 and 30–128); made in house; host or cells: Sf9 cells (baculovirus)
Briefly: Liposome-based GEF activity assay, isolated P-Rex1 DHPH domains. In kind it is biochemical. To be noted: for P-Rex1 Rac-GEF activity reduced to / remaining activity at 10 µM: 10 µM compound; for P-Rex1 Rac-GEF activity reduced to: P-Rex1 DHPH domains; for IC50: liposome-based GEF assay, 200 nM prenylated EE-Rac2 as substrate, read-out: IC50 of inhibition of P-Rex1 DHPH Rac-GEF activity. As to the method: (§1) Full-length N-terminally EE-tagged P-Rex1, P-Rex2, the P-Rex1 DH and DHPH domains and the P-Rex2 DH domain were produced in Sf9 cells using baculoviral transduction and were purified using anti-EE beads, as previously described. Briefly, frozen pellets from 500 ml of Sf9 culture infected with P-Rex expressing high-titre baculovirus were resuspended in ice-cold lysis Sf9-cell lysis buffer 2 (1x PBS, 1% Triton X-100, 5 mM EGTA, 1 mM EDTA, 25 mM NaF, 20 mM β-glycerophosphate, 1 mM DTT, 100 µM PMSF, 10 μg/ml each of leupeptin, pepstatin A, aprotinin and antipain) for 5 min and then ultracentrifuged at 118,000 × g for 1 h at 4°C. Supernatants were incubated with pre-washed anti-EE beads for 90 min on ice with end-over-end rotation. Beads were washed 4 times in wash buffer (2x PBS, 0.1% Triton X-100, 1 mM EGTA) and 5 times in elution buffer (1x PBS, 10% glycerol, 1 mM DTT, 1 mM EGTA, 0.01% Na azide), and protein was eluted by incubation with elution buffer containing Ac-EEYMPME peptide as described above. Protein was concentrated in a YM-100 Centricon (Millipore) at 5000 × g at 4°C. Fatty acid-free BSA and glycerol were added to final concentrations of 2 mg/ml and 50%, respectively. Protein concentration and purity were determined by coomassie staining of SDS-PAGE gels. Full-length Tiam1, expressed in and purified from Sf9 cells, was a kind gift from Angeliki Malliri, CRUK Manchester Institute, UK. The ITSN1 DHPH domains and Ect2 DHPH domains, produced in and purified from bacteria, were a kind gift from Kent Rossman, University of North Carolina, Chapel Hill, USA. The DOCK10 DHR2 domain, produced in and purified from bacteria, was a kind gift from Danni Fan, Institute of Cancer Research, London, UK. All small GTPase and GEF proteins were stored in aliquots at −80°C and were snap-frozen in liquid N2 after each use.
Liposome-based GEF activity assays were carried out essentially as described, except that GEFs were incubated with inhibitor compounds prior to the assay. GEFs (full-length P-Rex1, P-Rex2, and Tiam1, P-Rex1 DH and DHPH domains, P-Rex2 DH domain, ITSN1 DHPH domains, ECT2 DHPH domains or DOCK10 DHR2 domain) were diluted in 20 mM HEPES (pH 7.0 at 4°C), 200 mM KCl, 10% ethylene glycerol, 1% betaine, 500 µM EGTA, 0.01% azide. […] The final 10 µl samples contained GTPase, GEF and inhibitor at concentrations as stated, in 20 mM HEPES pH 7.5, 100 mM NaCl, 1 mM MgCl2, 1 mM EGTA, 1 mM DTT, 10 mg/ml fatty acid-free BSA, liposomes consisting of phosphatidylcholine, -serine and -inositol (200 µM each), with or without 10 µM PIP3, 1 µM GTPγS and 80 nM (1 µCi) ^35S-GTPγS. Positive controls contained additionally 2 mM EDTA to induce maximal GTP-loading of the GTPase. Samples were incubated at 30°C for 10 min, and reactions were stopped by the addition of 400 µl ice-cold wash buffer (1x PBS, 1 mM EGTA, 10 mM MgCl2, 1% Triton X-100, 100 µM GTP). Small GTPases were isolated using anti-EE antibody-coupled Sepharose beads or glutathione Sepharose beads, as appropriate, by incubation on ice for 90 min with end-over-end rotation, four washes in ice-cold wash buffer and resuspension of beads in Ultima Gold scintillation fluid (Perkin Elmer). ^35S-GTPγS incorporation was assessed by scintillation counting (Packard 1600TR, Liquid Scintillation Analyser).

Another test concerns the target T2, P-Rex1 DH domain (Homo sapiens, UniProt Q8TCU6).
T2 construct: 200 nM iDH EE-P-Rex1 DH domain (compounds 11–29); made in house; host or cells: Sf9 cells (baculovirus)
Briefly: Liposome-based GEF activity assay, isolated P-Rex1 DH domain. Type of test: biochemical. To be noted: 10 µM compound. As to the method: as §1, with “The ITSN1 DHPH domains and Ect2 DHPH domains, produced in and purified from bacteria, were a kind gift from Kent Rossman, University of North Carolina, Chapel Hill, USA. The DOCK10 DHR2 domain, produced in and purified from bacteria, was a kind gift from Danni Fan, Institute of Cancer Research, London, UK. All small GTPase and GEF proteins were stored in aliquots at −80°C and were snap-frozen in liquid N2 after each use.” left out
Liposome-based GEF activity assays were carried out essentially as described, except that GEFs were incubated with inhibitor compounds prior to the assay. […] Small GTPases were isolated using anti-EE antibody-coupled Sepharose beads or glutathione Sepharose beads, as appropriate, by incubation on ice for 90 min with end-over-end rotation, four washes in ice-cold wash buffer and resuspension of beads in Ultima Gold scintillation fluid (Perkin Elmer). ^35S-GTPγS incorporation was assessed by scintillation counting (Packard 1600TR, Liquid Scintillation Analyser).

The mark [1] stands for this setting: 100 nM EE-P-Rex1 DHPH domains, 200 nM prenylated EE-Rac1, PREX-in1, compounds 2-10 and 30-128.

T1 sequence (Q8TCU6 49-392 limits assumed): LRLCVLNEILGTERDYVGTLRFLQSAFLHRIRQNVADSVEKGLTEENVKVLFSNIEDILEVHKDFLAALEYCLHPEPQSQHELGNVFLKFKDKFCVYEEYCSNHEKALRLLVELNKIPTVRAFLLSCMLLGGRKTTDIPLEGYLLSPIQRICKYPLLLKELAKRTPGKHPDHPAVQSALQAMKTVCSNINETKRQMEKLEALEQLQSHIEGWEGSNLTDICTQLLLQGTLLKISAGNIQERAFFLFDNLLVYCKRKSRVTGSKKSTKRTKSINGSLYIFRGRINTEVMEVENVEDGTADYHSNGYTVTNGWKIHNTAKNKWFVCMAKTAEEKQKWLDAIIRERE
T2 sequence (Q8TCU6 49-240 limits assumed): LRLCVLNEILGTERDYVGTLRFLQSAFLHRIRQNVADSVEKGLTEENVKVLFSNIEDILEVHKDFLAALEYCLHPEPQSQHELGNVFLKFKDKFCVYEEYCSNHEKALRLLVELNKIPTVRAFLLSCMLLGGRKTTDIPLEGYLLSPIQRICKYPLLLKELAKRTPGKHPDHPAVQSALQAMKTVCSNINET

By remaining activity is commonly meant the signal under treatment as a percentage of the control signal. By IC50 is commonly meant the concentration at which inhibition is half-maximal. As to `COc1ccc(-c2[nH]nc3c2C(c2ccc(-c4ccc(OC)c(Cl)c4)o2)C(C#N)=C(N)O3)cc1` (stereo not shown) [#61], on P-Rex1 DHPH domains, the “P-Rex1 Rac-GEF activity reduced to” value is given as “below 10%” and the IC50 came to 2 µM. The remaining activity at 10 µM at P-Rex1 DHPH domains (setting [1]) came to 2%.
Consider `COc1ccc(-c2ccc(C3C(C#N)=C(N)Oc4n[nH]c(-c5ccc(C)cc5)c43)o2)cc1Cl` (stereo not shown) [#72], for which the “P-Rex1 Rac-GEF activity reduced to” value at P-Rex1 DHPH domains is given as “below 10%”. The remaining activity at 10 µM at P-Rex1 DHPH domains (setting [1]) stood at 1.69%.
With `CCc1[nH]nc2c1C(c1ccc(-c3ccc(Cl)cc3)o1)C(C#N)=C(N)O2` (stereo not shown) [#26], on P-Rex1 DH domain (P-Rex1 DH domain), the “P-Rex1 Rac-GEF activity reduced to” value is reported as “below 10%”. Besides, the remaining activity at 10 µM on P-Rex1 DH domain (200 nM EE-P-Rex1 DH domain, 200 nM prenylated EE-Rac1, compounds 11-29) was 4%.
As to `N#CC1=C(N)Oc2n[nH]c(-c3ccc(C(F)(F)F)cc3)c2C1c1ccc(-c2ccc(Cl)cc2)o1` (stereo not shown) [#116], at P-Rex1 DHPH domains, the “P-Rex1 Rac-GEF activity reduced to” value is “below 10%” and the IC50 came out at 2.7 µM. In addition, the remaining activity at 10 µM on P-Rex1 DHPH domains (setting [1]) is 9%.
As for `COc1cc(NC(=O)c2ccc(-c3ccc(Cl)cc3)o2)cc(OC)c1` [#66], the “% P-Rex1 activity remaining” value on P-Rex1 DHPH domains (setting [1]) is recorded as 58%.
For the molecule `COc1ccc(-c2ccc(C3C(C#N)=C(N)Oc4n[nH]c(-c5ccc(Cl)cc5)c43)o2)cc1Cl` (stereo not shown) [#76], the “P-Rex1 Rac-GEF activity reduced to” value on P-Rex1 DHPH domains is “below 10%”. Further, the remaining activity at 10 µM on P-Rex1 DHPH domains (setting [1]) is -2.19%.
